In patent US6482851B1, “Synthesis of dysidiolide and uses thereof” (Sloan-Kettering Institute for Cancer Research, priority 1998, dated 2002):

Assays:
Cdk2 = experiment: in vitro kinase assay of Cdk2 immunoprecipitated from treated TSU-Pr1 cells; type: cell-based, human; details: 3.33 μM, TSU-Pr1, as early as 3 hours in drug
Description: TSU-Pr1 cells were treated for 24 hours with either DMSO or 3.33 μM dysidiolide. Cells were pulse-labeled for 30 min with bromodeoxyuridine (BrdU) and analyzed by FACS. The R@ window contains BRDU-positive, S-phase cells. Consistent with the proposed inhibitory effect of dysidiolide on the positive cell cycle regulator Cdc25. the drug inhibited the activity of cyclin-dependent kinases (Cdk). Cdk4, 6 and 2 were immunoprecipitated from DMSO- or drug-treated TSU-Pr1 cell cultures. Activity was examined in vitro kinase assays. The activity of the three Cdks was inhibited in drug-treated cells, as early as 3 hours in drug.
In vitro kinase assays of Cdk. TSU-Pr1 cells were treated with 3.33 μM dysidiolide for 0-24 hours. Samples were collected at various times and the activity of Cdk4, 6 and 2 was determined. Cdks were immunoprecipitated with specific antibodies and incubated with radiolabeled ATP plus either histH1 (for Cdk2) or GST-Rb (for Cdk4 and 6). Reactions were separated on SDS-polyacrylamide gels and the amount of phosphorylated product was determined by radiometric analysis.

[1] = tested on: MCF7 human breast cancer cells; experiment: BrdU pulse-chase S phase progression; type: cell-based
Description: Effect of 10 μM dysidiolide on cell cycle progression of S-phase MCF7 cells (BrdU-positive). MCF7 cultures were pulse-labeled with 10 μM BrdU for 30 min. Cultures were washed extensively with phosphate-buffered saline (PBS) solution and fresh media was added, supplemented or not with 10 μM dysidiolide. The final DMSO concentration of control and drug cultures was 0.05%. Cells were harvested at different times after the BrdU pulse and cells were stained for DNA content with propidium iodide, and for BrdU, with a monoclonal anti-BrdU antibody coupled to fluorescein. The progression of this group of cells through the cell cycle was followed by dual wavelength flow cytometry.
Effect of 50 μM dysidiolide on cell cycle progression of S-phase MCF7 cells. MCF7 cells were pulse-labeled for 30 min with BrdU, and chased for 24 hr in the presence or absence of 50 μM dysidiolide. BrdU versus DNA content plots are shown for cell cultures harvested just after the pulse (time 0, “0”), and after the chase with (“24+”) or without drug (“24−”)
To further analyze the cell cycle effects induced by dysidiolide, the effects of the drug on S phase progression were tested. For this purpose, a subset of cells was pulse-labeled with the thymidine analog, 5-bromodeoxyuridine (BrdU) for 30 min, and chased in the presence or absence of dysidiolide. The progression of this group of cells through the cell cycle was followed by flow cytometry, by analyzing the intensity of BrdU labeling and DNA content at two different wavelengths: red for propidium iodide stain (DNA content) and green for the detection of anti-BrdU antibodies coupled to fluorescein (Becton-Dickinson Immunocytometric Systems, San Jose, Calif.). The first experiment was conducted on MCF7 human breast cancer cells chased for varying time periods after a 30 min BrdU pulse, with or without 10 μM dysidiolide. After a 24 hr chase in the presence of the drug, fewer cells had reached G1 (FIG. 6). However, the effect was modest in intensity (approximately 45% less cells reached G1 in treated samples, compared with untreated controls) […]

human tumor cell lines = experiment: anchorage-dependent growth of human tumor cell lines; type: cell-based
Description: (B) Effect of dysidiolide on anchorage-dependent growth of human tumor cell lines. Cells were grown in multiwell plates and treated with either various drug concentrations or with dimethylsulfoxide (vehicle control). Cell number was determined and the inhibitory concentration to induce 50% growth inhibition (IC50) was determined. (C) Furthermore, dysidiolide inhibited the growth of immortalized human mammary epithelial cells transformed by either the oncogene ras, the receptor tyrosine kinase Neu, or both agents. Again, the IC50 for growth inhibition was in the low μM range (IC50 −3 μM dysidiolide).
In summary, the synthetic dysidiolide is an active drug in human tumor cell lines. It induces cytotoxicity, as detected by loss of Trypan blue exclusion and by the appearance of cells containing fragmented DNA via FACS analysis. […] Dysidiolide has the potential to be a cell cycle-targeted drug, which could be used alone or in combination with other treatments. In this regard, it may sensitize cells for DNA damaging treatments (i.e. act as a radiosensitizer). […] Cell lines derived from tumors of diverse origins were affected similarly.

[2] = tested on: lung carcinoma and murine leukemia cell lines; details: cited from earlier work

For `C=C(C)CCC[C@@]1(C)CCC[C@H]2C1=CC[C@H](C)[C@]2(C)C[C@H](O)C1=CC(=O)O[C@@H]1O` (racemic) [dysidiolide], which Cdk2 activity (Cdk2) is on record?
The Cdk2 activity was “inhibited”.

And the “less cells reached G1 compared with untreated controls” value ([1]; 10 μM, 24 hr chase after 30 min BrdU pulse)?
The value was “approximately 45%”.

And the “cell cycle progression of BrdU-positive cells onto the next G1 phase” value ([1]; 50 μM, 24 hr chase)?
Its value is “prevented cell cycle progression”.

And the “cells with intermediate DNA content (S phase), forced fit” value ([1]; 50 μM, 24 hr chase, BrdU-positive cells)?
Its value is “approximately 90%”.

And the “cross-resistance with vinblastine or doxorubicin (MDR phenotype)” value (human tumor cell lines; MCF7 vs. MCF/Adr and CEM vs. CEM/VBL100)?
Its value is “no cross-resistance”.

What about the IC50 (human tumor cell lines; a number of human tumor cancer lines, read-out: IC50 for growth inhibition of human tumor cancer lines) of the same compound?
Its IC50 is 0.5 to 4.5 µM.

What about the “growth of lung carcinoma and murine leukemia cell lines” value [2] of the same compound?
Its value is “inhibits growth”.
